In patent US10577378B2, “EIF4A-inhibiting compounds and methods related thereto” (eFFECTOR Therapeutics, Inc., priority 2015, dated 2020):

test system: MDA-MB-231 human breast cancer cells; assay: Cell proliferation assay (CellTiter-Glo, 72 hours treatment); format: cell-based; conditions: Homo sapiens; MDA-MB-231 cells, 72 hours at 37° C., CellTiter-Glo; read-out: MDA-MB-231 cell proliferation assay (IC50)
How it was run: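 IC50 categories: under 100 nM +++, 100–1000 nM ++, above 1000 nM +, derived by sigmoidal curve fitting of CellTiter-Glo luminescence. Cells plated at 2,500 per well, dosed the following day and exposed 72 h at 37 °C versus DMSO control.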

SMILES | IC50
COc1nc(C#N)cc2c1[C@]1(O)[C@H](O)[C@H](CN(C)C)[C@@H](c3ccccc3)[C@]1(c1ccc(C#N)cc1)O2 (single isomer, unassigned) [139F] | < 0.1 µM
CN(C)C(=O)[C@H]1[C@@H](O)[C@@]2(O)c3nn(C)cc3O[C@@]2(c2ccc(C#N)cc2)[C@@H]1c1ccccc1 (single isomer, unassigned) [23F] | > 1 µM
CN(C)C(=O)[C@H]1[C@@H](O)[C@@]2(O)c3ncc(Cl)cc3O[C@@]2(c2ccc(C#N)cc2)[C@@H]1c1ccccc1 (single isomer, unassigned) [3F] | < 0.1 µM
COc1cncc2c1[C@]1(O)[C@H](O)[C@H](CN3CCOCC3)[C@@H](c3ccccc3)[C@]1(c1ccc(C(F)(F)F)cc1)O2 (single isomer, unassigned) [282F] | 0.1 to 1 µM
COc1cncc2c1[C@]1(O)[C@H](O)[C@H](CN3CCOCC3)[C@@H](c3ccccc3)[C@]1(c1ccc(C#N)cc1)O2 (single isomer, unassigned) [110F] | 0.1 to 1 µM
COc1nc(Cl)cc2c1[C@]1(O)[C@H](O)[C@H](CN3CCC34CC4(F)F)[C@@H](c3ccccc3)[C@]1(c1ccc(C#N)cc1)O2 (mixture of isomers) [222F, Rac-4-((5aR,6S,7S,8R,8aS)-3-chloro-7-((1,1-difluoro-4-azaspiro[2.3]hexan-4-yl)methyl)-8,8a-dihydroxy-1-methoxy-6-phenyl-6,7,8,8a-tetrahydro-5aH-cyclopenta[4,5]furo[3,2-c]pyridin-5a-yl)benzonitrile] | < 0.1 µM
CS(=O)(=O)[C@H]1[C@@H](O)[C@@]2(O)c3ncc(Cl)cc3O[C@@]2(c2ccc(Br)cc2)[C@@H]1c1ccccc1 (racemic) [84F, Rac-(5aR,6S,7R,8S,8aS)-5a-(4-bromophenyl)-3-chloro-7-(methylsulfonyl)-6-phenyl-5a,6,7,8-tetrahydro-8aH-cyclopenta[4,5]furo[3,2-b]pyridine-8,8a-diol] | > 1 µM
COCCN(C)C(=O)[C@H]1[C@@H](O)[C@@]2(O)c3c(OC)cncc3O[C@@]2(c2ccc(Br)cc2)[C@@H]1c1ccccc1 (racemic) [260F, rac-(4bS,5R,6R,7S,7aR)-7a-(4-bromophenyl)-4b,5-dihydroxy-4-methoxy-N-(2-methoxyethyl)-N-methyl-7-phenyl-4b,6,7,7a-tetrahydro-5H-cyclopenta[4,5]furo[2,3-c]pyridine-6-carboxamide] | < 0.1 µM
COc1nc(Cl)cc2c1[C@]1(O)[C@H](O)[C@H](CNCC(F)F)[C@@H](c3ccccc3)[C@]1(c1ccc(C#N)cc1)O2 (racemic) [196F, Rac-4-((5aR,6S,7S,8R,8aS)-3-chloro-7-(((2,2-difluoroethyl)amino)methyl)-8,8a-dihydroxy-1-methoxy-6-phenyl-6,7,8,8a-tetrahydro-5aH-cyclopenta[4,5]furo[3,2-c]pyridin-5a-yl)benzonitrile] | < 0.1 µM
COc1nc(C#N)cc2c1[C@]1(O)[C@H](O)[C@H](CN3CCCC3)[C@@H](c3ccccc3)[C@]1(c1ccc(C#N)cc1)O2 (racemic) [158Fc, Rac-(5aR,6S,7S,8R,8aS)-5a-(4-cyanophenyl)-8,8a-dihydroxy-1-methoxy-6-phenyl-7-(pyrrolidin-1-ylmethyl)-5a,7,8,8a-tetrahydro-6H-cyclopenta[4,5]furo[3,2-c]pyridine-3-carbonitrile] | < 0.1 µM
COc1cncc2c1[C@]1(O)[C@H](O)[C@H](S(=O)(=O)c3ccccc3)[C@@H](c3ccccc3)[C@]1(c1ccc(C#N)cc1)O2 (racemic) [118F, Rac-4-((4bS,5S,6R,7S,7aR)-4b,5-dihydroxy-4-methoxy-7-phenyl-6-(phenylsulfonyl)-4b,5,6,7-tetrahydro-7aH-cyclopenta[4,5]furo[2,3-c]pyridin-7a-yl)benzonitrile] | 0.1 to 1 µM
NC[C@@H]1C[C@@H](c2ccccc2)[C@]2(c3ccc(Br)cc3)Oc3cc(Cl)cnc3[C@]12O (racemic) [165F, Rac-(5aR,6S,8S,8aR)-8-(aminomethyl)-5a-(4-bromophenyl)-3-chloro-6-phenyl-5a,6,7,8-tetra-hydro-8aH-cyclopenta[4,5]furo[3,2-b]pyridin-8a-ol] | 0.1 to 1 µM
COc1cncc2c1[C@]1(O)[C@H](O)[C@H](C(=O)N3CC4CC(C3)O4)[C@@H](c3ccccc3)[C@]1(c1ccc(Br)cc1)O2 (racemic) [273F, Rac-(6-oxa-3-azabicyclo[3.1.1]heptan-3-yl)((4bS,5R,6R,7S,7aR)-7a-(4-bromophenyl)-4b,5-dihydroxy-4-methoxy-7-phenyl-4b,6,7,7a-tetrahydro-5H-cyclopenta[4,5]furo[2,3-c]pyridin-6-yl)methanone] | < 0.1 µM
COc1cncc2c1[C@]1(O)[C@@H](CN3CC4(COC4)C3)[C@H](CO)[C@@H](c3ccccc3)[C@]1(c1ccc(Br)cc1)O2 (racemic) [compound 201, Rac-(4bR,5R,6R,7S,7aR)-5-((2-oxa-6-azaspiro[3.3]heptan-6-yl)methyl)-7a-(4-bromophenyl)-6-(hydroxymethyl)-4-methoxy-7-phenyl-5,6,7,7a-tetrahydro-4bH-cyclopenta[4,5]furo[2,3-c]pyridin-4b-ol] | < 0.1 µM
